Laboratory results published in patent US10494355B2, “Oxadiazole amine derivative compounds as histone deacetylase 6 inhibitor, and the pharmaceutical composition comprising the same” (Chong Kun Dang Pharmaceutical Corp., priority 2015, dated 2019).

Key:
human recombinant HDAC1 = target: T1, human recombinant HDAC1 (Homo sapiens, UniProt Q13547); assay: HDAC1 enzyme activity inhibition assay (HDAC Fluorimetric Drug Discovery Kit); format: biochemical; details: human recombinant HDAC1, 10 μM substrate, 30° C. 60 minutes
T1 construct: purchased Enzo Life Science BML-SE456
In short: (§1)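 IC50s derived from fluorescence (Ex 360, Em 460) read after a 30-min developer step. Beforehand, compounds in 5-fold dilution series reacted 60 min at 30° C with 0.3 μg human recombinant enzyme and 10 μM Fluor de Lys-SIRT1 substrate.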

human recombinant HDAC6 = target: T2, human recombinant HDAC6 (Homo sapiens, UniProt Q9UBN7); assay: HDAC6 enzyme activity inhibition assay (HDAC Fluorimetric Drug Discovery Kit); format: biochemical; details: 30° C. 60 minutes
T2 construct: purchased Calbiochem 382180
T2 sequence (Q9UBN7 1-1215): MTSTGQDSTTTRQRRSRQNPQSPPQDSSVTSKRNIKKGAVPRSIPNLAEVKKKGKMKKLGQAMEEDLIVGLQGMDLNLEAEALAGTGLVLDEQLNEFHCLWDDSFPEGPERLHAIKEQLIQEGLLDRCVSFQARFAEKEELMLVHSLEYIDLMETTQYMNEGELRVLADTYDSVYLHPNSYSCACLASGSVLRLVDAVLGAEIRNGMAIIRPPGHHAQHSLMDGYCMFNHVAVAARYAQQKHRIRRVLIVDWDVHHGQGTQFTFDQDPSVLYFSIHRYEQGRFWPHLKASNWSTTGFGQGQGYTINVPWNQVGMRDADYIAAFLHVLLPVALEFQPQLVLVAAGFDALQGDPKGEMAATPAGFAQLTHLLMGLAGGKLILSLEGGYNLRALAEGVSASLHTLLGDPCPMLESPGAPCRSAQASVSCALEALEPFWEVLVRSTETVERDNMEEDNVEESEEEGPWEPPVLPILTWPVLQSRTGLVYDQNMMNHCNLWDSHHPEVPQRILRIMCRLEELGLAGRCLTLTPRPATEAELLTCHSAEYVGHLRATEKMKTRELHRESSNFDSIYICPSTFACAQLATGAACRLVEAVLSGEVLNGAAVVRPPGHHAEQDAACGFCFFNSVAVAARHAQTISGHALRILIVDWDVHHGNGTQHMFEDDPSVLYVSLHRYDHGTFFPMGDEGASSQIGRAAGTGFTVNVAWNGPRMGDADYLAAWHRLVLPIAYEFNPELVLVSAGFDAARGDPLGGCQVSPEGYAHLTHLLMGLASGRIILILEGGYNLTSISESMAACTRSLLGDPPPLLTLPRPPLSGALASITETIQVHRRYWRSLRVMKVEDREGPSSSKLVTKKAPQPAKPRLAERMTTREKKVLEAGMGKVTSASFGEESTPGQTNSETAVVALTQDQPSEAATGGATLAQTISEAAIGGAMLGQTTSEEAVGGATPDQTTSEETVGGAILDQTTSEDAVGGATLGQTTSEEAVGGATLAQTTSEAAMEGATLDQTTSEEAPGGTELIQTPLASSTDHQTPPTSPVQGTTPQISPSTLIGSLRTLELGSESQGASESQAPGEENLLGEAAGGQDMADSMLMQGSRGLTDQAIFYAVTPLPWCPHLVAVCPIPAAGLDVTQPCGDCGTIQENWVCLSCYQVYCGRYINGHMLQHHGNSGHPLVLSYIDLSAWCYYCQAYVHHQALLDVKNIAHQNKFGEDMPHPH
In short: as §1

T1 sequence (Q13547 whole entry): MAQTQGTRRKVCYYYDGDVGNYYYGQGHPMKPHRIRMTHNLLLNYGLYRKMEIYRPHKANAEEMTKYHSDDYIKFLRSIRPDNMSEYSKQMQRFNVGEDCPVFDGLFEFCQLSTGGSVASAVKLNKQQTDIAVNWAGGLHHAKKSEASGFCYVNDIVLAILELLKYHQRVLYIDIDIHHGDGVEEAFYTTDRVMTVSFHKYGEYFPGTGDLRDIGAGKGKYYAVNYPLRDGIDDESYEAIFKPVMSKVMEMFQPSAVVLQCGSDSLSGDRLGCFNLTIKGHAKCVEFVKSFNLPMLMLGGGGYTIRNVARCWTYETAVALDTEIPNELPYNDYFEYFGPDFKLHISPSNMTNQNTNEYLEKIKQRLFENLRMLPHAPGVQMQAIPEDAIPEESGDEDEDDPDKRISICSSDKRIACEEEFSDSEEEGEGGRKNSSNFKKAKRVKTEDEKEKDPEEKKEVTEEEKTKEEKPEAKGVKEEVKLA

| SMILES | IC50 (human recombinant HDAC1) [nM] | IC50 (human recombinant HDAC6) [nM] |
| --- | --- | --- |
| Fc1ccc(C2(Nc3ncc(-c4nnc(C(F)F)o4)cn3)CC2)c(F)c1 [Compound 2061, 5-(5-(difluoromethyl)-1,3,4-oxadiazol-2-yl)-N-(1-(2,4-difluorophenyl)cyclopropyl)pyrimidin-2-amine] | > 10000 | 43 |
| FC(F)c1nnc(-c2cnc(NC3(c4ccc(N5CCOCC5)cc4)CCC3)nc2)o1 [Compound 2062, 5-(5-(difluoromethyl)-1,3,4-oxadiazol-2-yl)-N-(1-(4-morpholinophenyl)cyclobutyl)pyrimidin-2-amine] | > 10000 | 256 |
